Drawing on patent US7749972B2, “1-substituted-7-(β-D-glycopyranosyloxy)(aza)indole compound and pharmaceutical containing the same” (Kissei Pharmaceutical Co., Ltd., priority 2005, dated 2010), this text covers IC50 for three molecules.

One experiment has as its target T1, human SGLT1 (Homo sapiens, UniProt P13866).
T1 construct: expressed in transfected cells; host or cells: COS-7 cells, transient lipofection (Lipofectamine-2000), vector pcDNA3.1(-)
T1 sequence (P13866 1-664): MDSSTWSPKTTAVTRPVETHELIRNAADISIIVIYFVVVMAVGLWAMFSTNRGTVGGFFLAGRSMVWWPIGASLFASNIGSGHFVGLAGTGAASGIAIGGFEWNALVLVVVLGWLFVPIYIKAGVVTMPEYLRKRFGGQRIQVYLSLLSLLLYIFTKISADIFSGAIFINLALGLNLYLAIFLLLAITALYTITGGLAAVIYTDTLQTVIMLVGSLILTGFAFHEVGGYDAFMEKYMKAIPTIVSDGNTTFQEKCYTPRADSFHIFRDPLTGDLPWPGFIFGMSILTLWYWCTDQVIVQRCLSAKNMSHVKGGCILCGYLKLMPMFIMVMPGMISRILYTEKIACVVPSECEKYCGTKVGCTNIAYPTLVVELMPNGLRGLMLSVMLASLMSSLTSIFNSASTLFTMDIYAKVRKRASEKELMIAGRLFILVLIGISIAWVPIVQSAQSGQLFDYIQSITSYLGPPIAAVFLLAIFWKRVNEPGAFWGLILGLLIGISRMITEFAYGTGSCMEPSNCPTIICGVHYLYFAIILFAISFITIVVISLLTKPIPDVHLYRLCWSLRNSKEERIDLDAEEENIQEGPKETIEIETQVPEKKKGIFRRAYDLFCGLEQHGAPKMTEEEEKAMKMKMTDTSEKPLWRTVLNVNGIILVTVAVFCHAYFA
Put plainly: Inhibition of methyl-α-D-glucopyranoside (α-MG) uptake in COS-7 cells expressing human SGLT1. Type of experiment: cell-based. As to conditions: COS-7 cells transiently expressing human SGLT1; 1 mM 14C-α-MG uptake, 37° C., 1 hour. The method, then:
(§1) Assay for Inhibitory Effects on Human SGLT Activity
1) Cloning and Construction of the Vector Expressing Human SGLT1
The cDNA library was prepared for PCR amplification by reverse transcription from total RNA derived from human small intestine (Ori gene) using oligo-dT as a primer. Using this cDNA library as a template, the DNA fragment coding 1 to 2005 bp of human SGLT1 (ACCESSION: M24847), which was reported by Hediger et al., was amplified by PCR method and inserted into the multi-cloning site of pcDNA3.1(−) (Invitrogen). The DNA sequence inserted was perfectly matched to the previously reported sequence.
(§2) 3) Preparation of the Cells Expressing Human SGLT1 or SGLT2 […]
(§3) A mixture of non-labeled (Sigma) and ^14C-labeled α-MG (Amersham Pharmacia Biotech) was added to the uptake buffer (pH 7.4; containing 140 mM sodium chloride, 2 mM potassium chloride, […] calcium chloride, 1 mM magnesium chloride, 10 mM 2-[4-(2-hydroxyethyl)-1-piperazinyl]ethane sulfonic acid and 5 mM tris(hydroxymethyl)aminomethane) at the final concentration of 1 mM. […] Radioactivity was measured by means of micro-scintillation counter TopCount (Packard). One hundred % was set to the difference between the uptake in the control group and the basal uptake, and the uptake of methyl α-D-glucopyranoside at each drug concentration was calculated. […]

Another experiment has as its target T2, human SGLT2 (Homo sapiens, UniProt P31639).
T2 construct: expressed in transfected cells; host or cells: COS-7 cells, transient lipofection (Lipofectamine-2000), vector pcDNA3.1(-)
T2 sequence (P31639 1-672): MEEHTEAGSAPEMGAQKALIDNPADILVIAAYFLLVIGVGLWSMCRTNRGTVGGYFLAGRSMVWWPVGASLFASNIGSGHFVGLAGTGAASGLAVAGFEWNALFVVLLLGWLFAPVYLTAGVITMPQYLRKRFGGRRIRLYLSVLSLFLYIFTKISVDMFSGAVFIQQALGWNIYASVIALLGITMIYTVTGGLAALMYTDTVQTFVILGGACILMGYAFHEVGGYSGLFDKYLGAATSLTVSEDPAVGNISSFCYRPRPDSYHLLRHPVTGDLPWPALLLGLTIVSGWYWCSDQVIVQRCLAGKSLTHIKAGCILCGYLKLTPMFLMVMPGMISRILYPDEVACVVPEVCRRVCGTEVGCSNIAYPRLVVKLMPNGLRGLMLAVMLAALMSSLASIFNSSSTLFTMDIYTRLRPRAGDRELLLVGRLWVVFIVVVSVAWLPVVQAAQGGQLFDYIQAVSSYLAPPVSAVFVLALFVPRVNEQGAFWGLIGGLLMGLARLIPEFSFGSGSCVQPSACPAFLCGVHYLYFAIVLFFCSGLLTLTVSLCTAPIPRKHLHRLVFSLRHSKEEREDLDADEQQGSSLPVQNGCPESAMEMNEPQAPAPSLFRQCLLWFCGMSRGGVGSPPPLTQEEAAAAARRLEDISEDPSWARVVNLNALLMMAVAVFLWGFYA
Briefly: Inhibition of methyl-α-D-glucopyranoside (α-MG) uptake in COS-7 cells expressing human SGLT2. Type of experiment: cell-based. As to conditions: COS-7 cells transiently expressing human SGLT2; 1 mM 14C-α-MG uptake, 37° C., 1 hour. The method, then:
as §1
2) Cloning and Construction of the Vector Expressing Human SGLT2
The cDNA library was prepared for PCR amplification by reverse transcription from total RNA derived from human kidney (Ori gene) using oligo-dT as a primer. Using this cDNA library as a template, the DNA fragment coding 2 to 2039 bp of human SGLT2 (ACCESSION: M95549, M95299), which was reported by R. G. Wells et al., was amplified by PCR method and inserted into the multi-cloning site of pcDNA3.1(−) (Invitrogen). The DNA sequence inserted was perfectly matched to the previously reported sequence.
as §2, §3

`Cc1ccc(Cn2ccc3cccc(O[C@@H]4O[C@H](CO)[C@@H](O)[C@H](O)[C@H]4O)c32)cc1` [Example 1, 7-(1-β-Glucopyranosyloxy)-1-(4-methylbenzyl)-1H-indole] came in with a 50% inhibitory concentration (IC50) at human SGLT1 of 235 nM.
For the molecule `OC[C@H]1O[C@@H](Oc2cccc3ccn(CCc4ccccc4)c23)[C@H](O)[C@@H](O)[C@@H]1O` [Example 4], half-maximal inhibition against human SGLT2 (IC50) required 66 nM.
With `OC[C@H]1O[C@@H](Oc2cccc3ccn(CCc4ccc(O)cc4)c23)[C@H](O)[C@@H](O)[C@@H]1O` [Example 7, 7-(β-D-Glucopyranosyloxy)-1-[2-(4-hydroxyphenyl)ethyl]-1H-indole], the figures for the IC50 against human SGLT2 and at human SGLT1 were 16 nM and 52 nM, respectively.
